In US20230212549A1, “COMPOUNDS COMPRISING A […] LIGAND AND USE THEREOF” (priority 2021, published 2023):
Numbered stars: 1 amine (or outer) side, 2 acyl side, 3 side chain; on linkers, the order of the positions; unused ones are H or OH. Bridge positions count the residues as written; N and C are the ends. Square brackets hold non-standard residues; d marks the D form. Peptide text beside a SMILES is read from it. * marks the point of attachment. X13 = O=C(O)CN1CCN(CC(=O)O)CCN(CC(=O)N2CCN(Cc3cc(C[*:1])cc(C[*:2])c3)CC2)CCN(CC(=O)O)CC1; Pro(trans-4-F) = O=C(O)[C@@H]1C[C@@H](F)CN1; Phe(4-Cl) = N[C@@H](Cc1ccc(Cl)cc1)C(=O)O; mXylylene = c1cc(C[*:1])cc(C[*:2])c1; NMeF = CN[C@@H](Cc1ccccc1)C(=O)O; Pen = CC(C)(S)[C@H](N)C(=O)O; Hexanoyl = CCCCCC(=O)*

Assays:
[1] = target: T1, FAP-expressing human WI-38 fibroblasts (Homo sapiens, UniProt Q12884); assay: Competitive FACS binding assay
T1 construct: FAP-expressing human WI-38 fibroblasts (ECACC) were cultured in EMEM; host or cells: WI-38 human fibroblasts
Description: Cells were analyzed in an Attune NxT flow cytometer. […] […].
Cells were analyzed in an Attune NxT flow cytometer. […]

[2] = target: Human recombinant FAP (Homo sapiens, UniProt Q12884); assay: FRET-based FAP protease activity assay; format: biochemical; parameters: purchased R&D systems 3715-SE
[3] = pIC50 Category (Activity), FRET-based FAP protease activity assay, recombinant human FAP, 37° C.
[4] = pIC50 Category (Activity), FRET-peptide substrate, 37° C.
[5] = pIC50 Category (activity), Recombinant human FAP

Sequence of Human recombinant FAP (Q12884 whole entry): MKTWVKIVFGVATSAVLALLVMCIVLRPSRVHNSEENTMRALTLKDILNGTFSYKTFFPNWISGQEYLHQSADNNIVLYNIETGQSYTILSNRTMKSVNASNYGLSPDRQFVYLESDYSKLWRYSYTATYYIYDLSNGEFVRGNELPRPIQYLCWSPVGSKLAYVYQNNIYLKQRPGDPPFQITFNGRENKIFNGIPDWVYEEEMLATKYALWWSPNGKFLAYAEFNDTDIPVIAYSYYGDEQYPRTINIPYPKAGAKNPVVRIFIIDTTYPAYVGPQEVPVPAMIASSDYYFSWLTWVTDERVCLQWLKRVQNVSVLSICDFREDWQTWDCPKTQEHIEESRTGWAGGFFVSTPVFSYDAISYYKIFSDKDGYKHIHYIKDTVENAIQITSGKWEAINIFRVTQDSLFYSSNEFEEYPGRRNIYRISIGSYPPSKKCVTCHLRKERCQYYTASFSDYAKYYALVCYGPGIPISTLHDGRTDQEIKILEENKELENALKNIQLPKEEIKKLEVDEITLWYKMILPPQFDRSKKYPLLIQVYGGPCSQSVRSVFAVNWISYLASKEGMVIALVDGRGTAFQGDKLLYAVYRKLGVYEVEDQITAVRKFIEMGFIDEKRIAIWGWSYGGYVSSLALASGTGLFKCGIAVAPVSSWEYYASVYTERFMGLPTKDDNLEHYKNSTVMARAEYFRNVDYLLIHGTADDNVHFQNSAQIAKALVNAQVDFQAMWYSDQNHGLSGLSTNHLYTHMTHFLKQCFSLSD
T1 sequence (Q12884 whole entry): as above

IC50 [1] [nM]	IC50 [2, 3] [nM]	SMILES	pIC50 Category (FACS) ([1]; FAP-expressing human WI-38 fibroblasts)	IC50 [2, 4] [nM]	IC50 [2, 5] [nM]
100 to 794	10 to 79.4	CCCCCC(=O)N[C@H]1CSCc2cccc(c2)CSC[C@@H](C(N)=O)NC(=O)[C@H](Cc2ccccc2)NC(=O)[C@H](CCC(=O)O)NC(=O)[C@H]([C@@H](C)O)NC(=O)[C@@H]2C[C@@H](F)CN2C(=O)[C@@H]2CCCN2C1=O [3BP-3352, Hex-[Cys(3MeBn)-Pro-4Tfp-Thr-Glu-Phe-Cys]-NH2] (Hexanoyl-CP[Pro(trans-4-F)]TEFC-NH2; linker 1-7 via mXylylene)	–	–	–
> 1000	100 to 794	CCCCCC(=O)N[C@H]1CSCc2cccc(c2)CSC(C)(C)[C@@H](C(N)=O)NC(=O)[C@H](Cc2ccccc2)NC(=O)[C@H](CCC(=O)O)NC(=O)[C@H]([C@@H](C)O)NC(=O)[C@@H]2CCCN2C(=O)[C@@H]2CCCN2C1=O [3BP-3351, Hex-[Cys(3MeBn)-Pro-Pro-Thr-Glu-Phe-Pen]-NH2] (Hexanoyl-CPPTEF[Pen]-NH2; linker 1-7 via mXylylene)	–	–	–
100 to 794	100 to 794	CCCCCC(=O)N[C@H]1CSCc2cccc(c2)CSC[C@@H](C(N)=O)NC(=O)[C@H](Cc2ccc(Cl)cc2)NC(=O)[C@H](CCC(=O)O)NC(=O)[C@H]([C@@H](C)O)NC(=O)[C@@H]2CCCN2C(=O)[C@@H]2CCCN2C1=O [3BP-3369, Hex-[Cys(3MeBn)-Pro-Pro-Thr-Glu-Pcf-Cys]-NH2] (Hexanoyl-CPPTE[Phe(4-Cl)]C-NH2; linker 1-7 via mXylylene)	–	–	–
> 1000	100 to 794	CCCCCC(=O)N[C@H]1CSCc2cccc(c2)CSC[C@@H](C(N)=O)NC(=O)[C@H](Cc2ccccc2)N(C)C(=O)[C@H](CCC(=O)O)NC(=O)[C@H]([C@@H](C)O)NC(=O)[C@@H]2CCCN2C(=O)[C@@H]2CCCN2C1=O [3BP-3358, Hex-[Cys(3MeBn)-Pro-Pro-Thr-Glu-Nmf-Cys]-NH2] (Hexanoyl-CPPTE[NMeF]C-NH2; linker 1-7 via mXylylene)	–	–	–
> 1000	–	CCCC[C@H](NC(=O)[C@H](CCC(=O)NC[C@H](O)[C@@H](O)[C@H](O)[C@H](O)CO)NC(=O)CCC(=O)NCCCOCCOCCOCCCNC(=O)C(CNCCN)CNCCN)C(=O)N[C@H]1CSCc2cccc(c2)CSC[C@@H](C(=O)O)NC(=O)[C@H](Cc2ccccc2)NC(=O)[C@H](CCC(N)=O)NC(=O)[C@H]([C@@H](C)O)NC(=O)[C@@H]2CCCN2C(=O)[C@@H]2CCCN2C1=O [3BP-4248, N4Ac-Ttds-Glu(AGLU′)-Nle-[Cys-(3MeBn)-Pro-Pro-Thr-Gln-Phe-Cys]-OH]	–	> 1000	–

SMILES	IC50 [1] [nM]	IC50 [2, 3] [nM]	pIC50 Category (FACS) ([1]; FAP-expressing human WI-38 fibroblasts)	IC50 [2, 4] [nM]	IC50 [2, 5] [nM]
CCCCCC(=O)N[C@H]1CSCc2cc(CSCCNC(=O)CCC(=O)NCCCOCCOCCOCCCNC(=O)CCCCC3(N(C)CC(=O)O)CN(CC(=O)O)CCN(CC(=O)O)C3)cc(c2)CSC[C@@H](C(=O)O)NC(=O)[C@H](Cc2ccccc2)NC(=O)[C@H](CCC(N)=O)NC(=O)[C@H]([C@@H](C)O)NC(=O)[C@@H]2CCCN2C(=O)[C@@H]2CCCN2C1=O [3BP-4384, Hex-[Cys(tMeBn(DATA-Ttds-AET))-Pro-Pro-Thr-Gln-Phe-Cys]-OH]	10 to 79.4	–	B (category B for pIC50 values between 7.1 and 8.0)	10 to 79.4	10 to 79.4
CCCCCC(=O)N[C@H]1CSCc2cc(cc(CN3CCN(C(=O)CN4CCN(CC(=O)O)CCN(CC(=O)O)CCN(CC(=O)O)CC4)CC3)c2)CSC[C@@H](C(=O)N[C@@H](CC(=O)O)C(N)=O)NC(=O)[C@@H]2CCCN2C(=O)[C@@H]2CCCN2C(=O)[C@H]([C@@H](C)O)NC(=O)[C@H](CCC(N)=O)NC(=O)[C@H](Cc2ccccc2)NC1=O [3BP-3855, Hex-[Cys(tMeBn(DOTA-PP))-Phe-Gln-Thr-Pro-Pro-Cys]-Asp-NH2] (Hexanoyl-CFQTPPCD-NH2; linker 1-7 via X13)	> 1000	> 1000	–	–	–
CCCCCC(=O)N[C@H]1CSCc2cc(CSCCNC(=O)COCCOCCNC(=O)CCC(C(=O)O)N3CCN(CC(=O)O)CCN(CC(=O)O)CC3)cc(c2)CSCC(C(N)=O)NC(=O)[C@H](Cc2ccccc2)NC(=O)[C@H](CCC(N)=O)NC(=O)[C@H]([C@@H](C)O)NC(=O)[C@@H]2CCCN2C(=O)[C@@H]2CCCN2C1=O (stereo partly drawn) [3BP-4708, Hex-[Cys(tMeBn(NODAGA-O2Oc-AET))-Pro-Pro-Thr-Gln-Phe-Cys]-NH2]	< 10	–	–	–	< 10
